Reference: patent US9546152B2 (MERCK SHARP & DOHME CORP., priority 2012, dated 2017)

Tests used:
human orexin-2 receptor [1] = target: T1, human orexin-2 receptor (Homo sapiens (Human), UniProt O43614); assay: FLIPR Ca2+ Flux Assay, orexin-2 receptor; type: cell-based; settings: CHO cells expressing the human orexin-2 receptor; agonist 70 pM Ala-6,12 human orexin-A; read-out: hOX2R FLIPR IC50
In short: (§1)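 CHO cells expressing rat OX1 or human OX2 receptor, Fluo-4AM loaded; compounds preincubated 5 min, then challenged with 70 pM Ala-6,12 human orexin-A in HBSS/20 mM HEPES/0.1% BSA/2.5 mM probenecid, pH 7.4. FLIPR fluorescence peak height over 5 min compared with agonist-only response.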

rat orexin-1 receptor = rat orexin-1 receptor (Rattus norvegicus (Rat), UniProt P56718); assay: FLIPR Ca2+ Flux Assay, orexin-1 receptor; type: cell-based; settings: CHO cells expressing the rat orexin-1 receptor; agonist 70 pM Ala-6,12 human orexin-A; read-out: hOX1R FLIPR IC50
In short: as §1

human orexin-2 receptor [2] = target: T1, human orexin-2 receptor; assay: radioligand binding assay, orexin-2 receptor; settings: membranes prepared from CHO cells expressing the OX2 receptor; read-out: hOX2R BIND hKi

T1 sequence (O43614 whole entry): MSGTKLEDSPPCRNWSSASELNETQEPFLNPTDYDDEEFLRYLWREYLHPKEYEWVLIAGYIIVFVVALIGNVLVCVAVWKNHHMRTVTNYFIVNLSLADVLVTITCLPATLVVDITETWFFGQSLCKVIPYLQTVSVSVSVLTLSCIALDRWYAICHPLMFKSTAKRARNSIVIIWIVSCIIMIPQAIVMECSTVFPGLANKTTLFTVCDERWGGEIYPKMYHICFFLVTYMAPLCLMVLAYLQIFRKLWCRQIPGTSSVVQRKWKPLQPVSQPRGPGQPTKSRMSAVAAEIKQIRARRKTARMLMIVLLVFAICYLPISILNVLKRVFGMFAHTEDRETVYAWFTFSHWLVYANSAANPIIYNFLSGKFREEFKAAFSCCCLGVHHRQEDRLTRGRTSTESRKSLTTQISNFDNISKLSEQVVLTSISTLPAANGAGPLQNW
Chain of rat orexin-1 receptor (P56718 whole entry): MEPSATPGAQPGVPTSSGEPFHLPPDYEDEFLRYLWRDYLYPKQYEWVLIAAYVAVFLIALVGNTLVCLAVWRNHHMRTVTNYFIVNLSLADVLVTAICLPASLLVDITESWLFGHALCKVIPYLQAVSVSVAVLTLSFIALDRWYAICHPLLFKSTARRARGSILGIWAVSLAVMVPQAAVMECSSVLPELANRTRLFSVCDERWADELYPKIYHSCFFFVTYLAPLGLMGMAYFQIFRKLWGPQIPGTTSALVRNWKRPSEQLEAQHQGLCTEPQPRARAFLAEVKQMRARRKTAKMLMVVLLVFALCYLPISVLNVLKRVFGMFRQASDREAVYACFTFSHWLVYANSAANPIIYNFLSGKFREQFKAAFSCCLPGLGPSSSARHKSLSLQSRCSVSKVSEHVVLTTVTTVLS

Cc1nsc(-c2ccccc2)c1C(=O)N1C[C@H](Oc2nccc(C#N)c2C)CC[C@H]1C [Example 47, 3-methyl-2-({(3R,6R)-6-methyl-1-[(3-methyl-5-phenylisothiazol-4-yl)carbonyl]piperidin-3-yl}oxy)pyridine-4-carbonitrile]
IC50 (human orexin-2 receptor [1]): 82 nM
IC50 (rat orexin-1 receptor): 2360 nM
Ki (human orexin-2 receptor [2]): 4.9 nM

Cc1c(C#N)ccnc1O[C@@H]1CC[C@@H](C)N(C(=O)c2ccccc2Oc2ccccc2)C1 [Example 30, 3-methyl-2-({(3R,6R)-6-methyl-1-[(2-phenoxyphenyl)carbonyl]piperidin-3-yl}oxy)pyridine-4-carbonitrile]
IC50 (human orexin-2 receptor [1]): 46 nM
IC50 (rat orexin-1 receptor): > 10000 nM
Ki (human orexin-2 receptor [2]): 2.3 nM

COc1ccc(C(=O)N2C[C@H](Oc3nccc(C#N)c3C)CC[C@H]2C)c(-c2ccnn2C)n1 [Example 79, 2-{[(3R,6R)-1-{[6-methoxy-2-(1-methyl-1H-pyrazol-5-yl)pyridin-3-yl]carbonyl}-6-methylpiperidin-3-yl]oxy}-3-methylpyridine-4-carbonitrile]
IC50 (human orexin-2 receptor [1]): 85.6 nM
IC50 (rat orexin-1 receptor): 10000 nM
Ki (human orexin-2 receptor [2]): 9.9 nM

Cc1c(C#N)ccnc1O[C@@H]1CC[C@@H](C)N(C(=O)c2cc(F)ccc2-c2ccccn2)C1 [Example 56]
IC50 (human orexin-2 receptor [1]): 30 nM
IC50 (rat orexin-1 receptor): 2120 nM
Ki (human orexin-2 receptor [2]): 1.4 nM

COc1cccc(-n2nccn2)c1C(=O)N1C[C@H](Oc2nccc(C#N)c2C)CC[C@H]1C [Example 14, 2-{[(3R,6R)-1-{[2-methoxy-6-(2H-1,2,3-triazol-2-yl)phenyl]carbonyl}-6-methylpiperidin-3-yl]oxy}-3-methylpyridine-4-carbonitrile]
IC50 (human orexin-2 receptor [1]): 15 nM
IC50 (rat orexin-1 receptor): 507 nM
Ki (human orexin-2 receptor [2]): 0.2 nM

Cc1c(C#N)ccnc1O[C@@H]1CC[C@@H](C)N(C(=O)c2ccccc2-n2ncnn2)C1 [Example 70, 3-methyl-2-{[(3R,6R)-6-methyl-1-{[2-(2H-tetrazol-2-yl)phenyl]carbonyl}piperidin-3-yl]oxy}pyridine-4-carbonitrile]
IC50 (human orexin-2 receptor [1]): 7.7 nM
IC50 (rat orexin-1 receptor): 4590 nM
Ki (human orexin-2 receptor [2]): 1.6 nM

Cc1c(C#N)ccnc1O[C@@H]1CC[C@@H](C)N(C(=O)c2cc(F)ccc2-c2cscn2)C1 [Example 26, 2-{[(3R,6R)-1-{[5-fluoro-2-(1,3-thiazol-4-yl)phenyl]carbonyl}-6-methylpiperidin-3-yl]oxy}-3-methylpyridine-4-carbonitrile]
IC50 (human orexin-2 receptor [1]): 10 nM
IC50 (rat orexin-1 receptor): 967 nM
Ki (human orexin-2 receptor [2]): 0.6 nM

COc1c(C#N)ccnc1O[C@@H]1CC[C@@H](C)N(C(=O)c2ccccc2-c2ncccn2)C1 [Example 107, 3-methoxy-2-({(3R,6R)-6-methyl-1-[(2-pyrimidin-2-ylphenyl)carbonyl]piperidin-3-yl}oxy)pyridine-4-carbonitrile]
IC50 (human orexin-2 receptor [1]): 33 nM
IC50 (rat orexin-1 receptor): 2750 nM
Ki (human orexin-2 receptor [2]): 0.4 nM

COc1ccc(C(=O)N2C[C@H](Oc3nccc(C#N)c3C)CC[C@H]2C)c(C2CC2)c1 [Example 52, 2-({(3R,6R)-1-[(2-cyclopropyl-4-methoxyphenyl)carbonyl]-6-methylpiperidin-3-yl}oxy)-3-methylpyridine-4-carbonitrile]
IC50 (human orexin-2 receptor [1]): 56 nM
IC50 (rat orexin-1 receptor): 7030 nM
Ki (human orexin-2 receptor [2]): 4.4 nM

Cc1ccc(C(=O)N2C[C@H](Oc3nccc(C#N)c3C)CC[C@H]2C)c(-n2nccn2)c1 [Example 8, 3-methyl-2-{[(3R,6R)-6-methyl-1-{[4-methyl-2-(2H-1,2,3-triazol-2-yl)phenyl]carbonyl}piperidin-3-yl]oxy}pyridine-4-carbonitrile]
IC50 (human orexin-2 receptor [1]): 11 nM
IC50 (rat orexin-1 receptor): 861 nM
Ki (human orexin-2 receptor [2]): 0.6 nM

Cc1c(C#N)ccnc1O[C@@H]1CC[C@@H](C)N(C(=O)c2c(F)cccc2-c2cscn2)C1 [Example 22, 2-{[(3R,6R)-1-{[2-fluoro-6-(1,3-thiazol-4-yl)phenyl]carbonyl}-6-methylpiperidin-3-yl]oxy}-3-methylpyridine-4-carbonitrile]
IC50 (human orexin-2 receptor [1]): 20 nM
IC50 (rat orexin-1 receptor): 991 nM
Ki (human orexin-2 receptor [2]): 0.3 nM
